Measured values taken from patent publication EP4289427A1, “DIHYDRO[1,8]NAPHTHYRIDIN-7-ONE AND PYRIDO[3,2-B][1,4]OXAZIN-3-ONE FOR USE IN TREATING CANCER, AND METASTASES IN PARTICULAR” (Anagenesis Biotechnologies, priority 2022, dated 2023).

Columns and labels:
RD cells = assay: Cytotoxicity assay (CellTiter-Glo 2.0) on RD cells; format: cell-based, Human; settings: for IC50: Homo sapiens
Experimental: (§1) Cytotoxicity assays consist in treating cells with compounds and assessing remaining viability after a defined incubation time, depending on the cell line. CellTiter-Glo® 2.0 reagent allows viability measurement by quantification of ATP present, which is an indicator of metabolically active cells.
(§2) The cancer cell lines were cultivated in their respective growth medium (see tables 6a and 6b). On day 0 of the cytotoxicity assay, the cells were harvested and seeded into a 384-well plate at a defined density in their respective growth medium (see tables 6a and 6b). Compounds to be tested were then added onto the cells and incubated for a defined duration (see tables 6a and 6b). Following incubation, CellTiter-Glo® 2.0 reagent (cat.no. G9241 from Promega) was added into the wells (vol/vol, according to the manufacturer's recommendations), plates were gently shaken and incubated for 10 minutes in the dark at room temperature. Bioluminescence was then measured with a multimode plate reader (Victor Nivo from Perkin Elmer), and cell viability and relative IC50 were determined. Table 6a: Cancer cell characteristics, culture and cytotoxic assay conditions

HUVECs = assay: Tube formation assay (anti-angiogenic activity); format: cell-based, human; settings: incubation 16 to 18 hours; for IC50: Homo sapiens, HUVEC
Source text: Angiogenesis is a phenomenon that includes different processes, such as endothelial cell proliferation, migration and differentiation that lead to the formation of new blood vessels. Tube formation assay is a standard in vitro test to assess angiogenesis: briefly, human Umbilical Vein Endothelial cells (hereafter "HUVECs") cultivated on a gelled basement matrix spontaneously proliferate, migrate and differentiate to form tube-like structures, that appear elongated and that connect to each other to form a network.
HUVECs were cultivated in Endothelial Cell Growth Medium (cat.no. C-22010 from Promocell) supplemented with 1% PenStrep (hereafter "HUVEC medium"). On day 0, HUVECs were harvested and transferred into a 384-well plate precoated with 10 µl/well of Cultrex UltiMatrix Reduced Growth factor basement membrane (cat.no. BME001-10 from BioTechne), according to the manufacturer's instructions, at a density of 5000 cells/well in HUVEC medium. Compounds to be tested were then added onto the cells and incubated for 16 to 18 hours at 37°C. After this incubation period, the cells were stained with calcein-AM (cat.no. 10462052 from Fisher Scientific) and pictures were acquired using a confocal fluorescent microscope (IXM from Molecular Devices). Tube formation was measured with MetaXpress® Software.

4T1 cells = assay: Cytotoxicity assay (CellTiter-Glo 2.0) on 4T1 cells; format: cell-based, Mouse; settings: incubation 2 days; for IC50: Mus musculus, 48 h
Experimental: as §1, §2

EoL-1 cells = assay: Cytotoxicity assay (CellTiter-Glo 2.0) on EoL-1 cells; format: cell-based, Human; settings: incubation 1 day; for IC50: Homo sapiens, EOL1, 24 h
Experimental: as §1, §2

MDA-MB-231 cells = assay: Cytotoxicity assay (CellTiter-Glo 2.0) on MDA-MB-231 cells; format: cell-based, Human; settings: incubation 3 days; for IC50: Homo sapiens, 72 h
Experimental: as §1, §2

Row | Compound | Cytotoxicity (RD cells; 2 day-treatment) | Cytotoxicity (RD cells; 4 day-treatment) | IC50 (RD cells; 48 h, 2 day-treatment) [nM] | IC50 (RD cells; 96 h, 4 day-treatment) [nM] | IC50 (HUVECs) [nM] | Angiogenesis inhibition (HUVECs) | IC50 (4T1 cells) [nM] | Cytotoxicity (4T1 cells) | IC50 (EoL-1 cells) [nM] | Cytotoxicity (EoL-1 cells) | IC50 (MDA-MB-231 cells) [nM] | Cytotoxicity (MDA-MB-231 cells)
1 | CSc1cc(Oc2ccnc3c2CCC(=O)N3)ccc1NC(=O)Nc1cc(C(C)(C)C)no1 [Compound 008, 1-(3-(tert-butyl)isoxazol-5-yl)-3-(2-(methylthio)-4-((7-oxo-5,6,7,8-tetrahydro-1,8-naphthyridin-4-yl)oxy)phenyl)urea] | ++ (50% ≤ cytotoxicity < 85%) | +++ (cytotoxicity ≥ 85%) | < 1000 | < 1000 | < 100 | +++ (angiogenesis inhibition ≥ 80%) | < 1000 | +++ (cytotoxicity ≥ 85%) | 1 to 10 | +++ (cytotoxicity ≥ 85%) | < 1000 | ++ (50% ≤ cytotoxicity < 85%)
2 | CC(C)(C)c1cc(NC(=O)Nc2ccc(Oc3ccnc4c3CCC(=O)N4)c3ccccc23)on1 [Compound 009, 1-(3-(tert-butyl)isoxazol-5-yl)-3-(4-((7-oxo-5,6,7,8-tetrahydro-1,8-naphthyridin-4-yl)oxy)naphthalen-1-yl)urea] | ++ (50% ≤ cytotoxicity < 85%) | ++ (50% ≤ cytotoxicity < 85%) | 1000 to 5000 | 1000 to 5000 | < 100 | +++ (angiogenesis inhibition ≥ 80%) | < 1000 | +++ (cytotoxicity ≥ 85%) | 1 to 10 | +++ (cytotoxicity ≥ 85%) | < 1000 | ++ (50% ≤ cytotoxicity < 85%)
3 | Cc1ccc(-n2nc(C(C)(C)C)cc2NC(=O)Nc2ccc(Oc3ccnc4c3CCC(=O)N4)cc2C(F)(F)F)cc1 [Compound 010, 1-[5-tert-butyl-2-(p-tolyl)pyrazol-3-yl]-3-[4-[(7-oxo-6,8-dihydro-5H-1,8-naphthyridin-4-yl)oxy]-2-(trifluoromethyl)phenyl]urea] | ++ (50% ≤ cytotoxicity < 85%) | ++ (50% ≤ cytotoxicity < 85%) | 5000 to 10000 | 5000 to 10000 | 100 to 500 | +++ (angiogenesis inhibition ≥ 80%) | 1000 to 5000 | +++ (cytotoxicity ≥ 85%) | 10 to 100 | ++ (50% ≤ cytotoxicity < 85%) | 1000 to 5000 | ++ (50% ≤ cytotoxicity < 85%)
4 | Cc1ccc(-n2nc(C(C)(C)C)cc2NC(=O)Nc2ccc(Oc3ccnc4c3OCC(=O)N4)cc2C(F)(F)F)cc1 [Compound 011, 1-[5-tert-butyl-2-(p-tolyl)pyrazol-3-yl]-3-[4-[(3-oxo-4H-pyrido[3,2-b][1,4]oxazin-8-yl)oxy]-2-(trifluoromethyl)phenyl]urea] | + (20 % ≤ cytotoxicity < 50%) | + (20 % ≤ cytotoxicity < 50%) | 5000 to 10000 | ≥ 10000 | 100 to 500 | +++ (angiogenesis inhibition ≥ 80%) | 1000 to 5000 | +++ (cytotoxicity ≥ 85%) | 10 to 100 | ++ (50% ≤ cytotoxicity < 85%) | 1000 to 5000 | ++ (50% ≤ cytotoxicity < 85%)
5 | CSc1cc(Oc2ccnc3c2OCC(=O)N3)ccc1NC(=O)Nc1cc(C(C)(C)C)nn1-c1cccc(F)c1 [Compound 012, 1-[5-tert-butyl-2-(3-fluorophenyl)pyrazol-3-yl]-3-[2-methylsulfanyl-4-[(3-oxo-4H-pyrido[3,2-b][1,4]oxazin-8-yl)oxy]phenyl]urea] | ++ (50% ≤ cytotoxicity < 85%) | ++ (50% ≤ cytotoxicity < 85%) | 1000 to 5000 | 5000 to 10000 | < 100 | +++ (angiogenesis inhibition ≥ 80%) | 1000 to 5000 | +++ (cytotoxicity ≥ 85%) | 1 to 10 | ++ (50% ≤ cytotoxicity < 85%) | 1000 to 5000 | ++ (50% ≤ cytotoxicity < 85%)
6 | CC(C)(C)c1cc(NC(=O)Nc2ccc(Oc3ccnc4c3OCC(=O)N4)cc2C(F)(F)F)n(-c2cccc(F)c2)n1 [Compound 014, 1-[5-tert-butyl-2-(3-fluorophenyl)pyrazol-3-yl]-3-[4-[(3-oxo-4H-pyrido[3,2-b][1,4]oxazin-8-yl)oxy]-2-(trifluoromethyl)phenyl]urea] | + (20 % ≤ cytotoxicity < 50%) | + (20 % ≤ cytotoxicity < 50%) | 5000 to 10000 | ≥ 10000 | 100 to 500 | +++ (angiogenesis inhibition ≥ 80%) | 1000 to 5000 | +++ (cytotoxicity ≥ 85%) | 10 to 100 | ++ (50% ≤ cytotoxicity < 85%) | 1000 to 5000 | + (20 % ≤ cytotoxicity < 50%)
7 | CC(C)(C)c1cc(NC(=O)Nc2ccc(Oc3ccnc4c3CCC(=O)N4)cc2C(F)(F)F)n(-c2cccc(F)c2)n1 [Compound 015, 1-[5-tert-butyl-2-(3-fluorophenyl)pyrazol-3-yl]-3-[4-[(7-oxo-6,8-dihydro-5H-1,8-naphthyridin-4-yl)oxy]-2-(trifluoromethyl)phenyl]urea] | ++ (50% ≤ cytotoxicity < 85%) | ++ (50% ≤ cytotoxicity < 85%) | 5000 to 10000 | 1000 to 5000 | < 100 | +++ (angiogenesis inhibition ≥ 80%) | < 1000 | +++ (cytotoxicity ≥ 85%) | 10 to 100 | ++ (50% ≤ cytotoxicity < 85%) | 1000 to 5000 | ++ (50% ≤ cytotoxicity < 85%)
8 | CSc1cc(Oc2ccnc3c2OCC(=O)N3)ccc1NC(=O)Nc1cc(C(C)(C)C)nn1-c1ccc(C)nc1 [Compound 019, 1-[5-tert-butyl-2-(6-methyl-3-pyridyl)pyrazol-3-yl]-3-[2-methylsulfanyl-4-[(3-oxo-4H-pyrido[3,2-b][1,4]oxazin-8-yl)oxy]phenyl]urea] | ++ (50% ≤ cytotoxicity < 85%) | ++ (50% ≤ cytotoxicity < 85%) | 1000 to 5000 | 1000 to 5000 | < 100 | +++ (angiogenesis inhibition ≥ 80%) | 1000 to 5000 | +++ (cytotoxicity ≥ 85%) | 1 to 10 | +++ (cytotoxicity ≥ 85%) | 1000 to 5000 | ++ (50% ≤ cytotoxicity < 85%)
9 | CSc1cc(Oc2ccnc3c2OCC(=O)N3)ccc1NC(=O)Nc1cc(C(C)(C)C)nn1C [Compound 022, 1-(5-tert-butyl-2-methyl-pyrazol-3-yl)-3-[2-methylsulfanyl-4-[(3-oxo-4H-pyrido[3,2-b][1,4]oxazin-8-yl)oxy]phenyl]urea] | ++ (50% ≤ cytotoxicity < 85%) | ++ (50% ≤ cytotoxicity < 85%) | 1000 to 5000 | 1000 to 5000 | < 100 | ++ (80% > angiogenesis inhibition ≥ 50%) | 1000 to 5000 | +++ (cytotoxicity ≥ 85%) | < 1 | +++ (cytotoxicity ≥ 85%) | 1000 to 5000 | ++ (50% ≤ cytotoxicity < 85%)
10 | CC(C)(C)c1cc(NC(=O)Nc2ccc(Oc3ccnc4c3CCC(=O)N4)cc2C(F)(F)F)no1 [Compound 024, 1-(5-tert-butylisoxazol-3-yl)-3-[4-[(7-oxo-6,8-dihydro-5H-1,8-naphthyridin-4-yl)oxy]-2-(trifluoromethyl)phenyl]urea] | ++ (50% ≤ cytotoxicity < 85%) | ++ (50% ≤ cytotoxicity < 85%) | 1000 to 5000 | 1000 to 5000 | 100 to 500 | ++ (80% > angiogenesis inhibition ≥ 50%) | 1000 to 5000 | ++ (50% ≤ cytotoxicity < 85%) | 1 to 10 | +++ (cytotoxicity ≥ 85%) | 1000 to 5000 | ++ (50% ≤ cytotoxicity < 85%)
